Earlier results, collected in patent US8236817B2, “Polymorphs of 1-cyclopropy1-7-([s,s])-2,8-diazadicyclo[4.3.0]non-8-yl)-6-fluoro-1,4-dihydro-8-methoxy-4-oxo-3-quinoline carboxylic acid hydrochloride and methods for the preparation thereof” (Chemi S.p.A., priority 2003, dated 2012).

Details: solid form exposed to atmosphere; stated in U.S. Pat. No. 5,849,752

In the case of COc1c(N2C[C@@H]3CCCN[C@@H]3C2)c(F)cc2c(=O)c(C(=O)O)cn(C3CC3)c12.Cl [anhydrous form], the hygroscopicity is given as “absorbs water from the atmosphere”.
